Measurements: US20010034330A1, “Innate immunity-stimulating compositions of CpG and saponin and methods thereof” (priority 1998, published 2001)

Tests used:
[1] = system: YAC-1 cells; test: Natural killer cell activity: 51Cr release lysis of YAC-1 target cells by splenocytes of treated mice; format: in vivo, Balb/c mice; settings: for NK cell response (lysis of YAC-1 cells): Example 1, FIG. 1, 10 ug each, subcutaneous, days 1 and 2; for NK cell response (lysis of YAC-1 cells) / NK activity, dose response: splenocytes day 3; for NK cell activity compared with QS-7 at an equivalent dose / NK activity, dose response: Example 3, FIG. 3, 3, 10, 30 ug s.c. day 1 and day 2
Procedure: Assessment of natural killer cell activity was carried out by an adaptation of a published method (Hashimoto et al., J. Immunol. 163: 583 (1999)). Balb/c mice (4 per group, female, 8-10 weeks of age) were administered one of five different candidate compositions at days 1 and 2. The compositions evaluated were (1) saline (negative control), (2) 10 ug QS-21, (3) 10 ug CpG (sequence 1826), (4) 0.5 ug murine IL-12 (positive control for NK cell activation), and (5) a combination of 10 ug QS-21 and 10 ug CpG in 0.2 ml saline. All test compositions were administered subcutaneously except for murine IL-12, which was administered intraperitoneally. Splenocytes were removed from the mice at day 3 for use as effector cells in the natural killer cell assay. Such cells were immediately used in a standard ^51Cr release lysis assay. YAC-1 cells (loaded with ^51Cr) were used as target cells. The lysis of this NK cell-sensitive line is indicative of NK cell activation in the splenocyte population.
The time dependence of the administration of CpG/QS-21 on natural killer cell activation was investigated. Balb/c mice (5 per group, female, 8-10 weeks of age) were administered a mixture of 10 ug QS-21 and 10 ug CpG sequence 1826 in a total volume of 0.2 ml by subcutaneous route seven days before (−7d), three days before (−3d), two days before (−2d), and one day before (−1d) assay of natural killer cell activity. Splenocytes were removed from the mice at day 0 for use as effector cells in the natural killer cell assay. YAC-1 cells (loaded with ^51Cr) were used as target cells. Natural killer cell lysis was apparent if the formulation of QS-21/CpG was administered one, two, or three days prior to the assay, but not if the formulation was administered seven days prior to the assay (FIG. 2). This confirms the transient nature of the natural killer cell activity.
Balb/c mice (5 per group, female, 8-10 weeks of age) were administered individually QS-7, QS-21, or CpG sequence 1826 at three different dose levels (3, 10, 30 ug) to determine a dose response curve for these individual compounds. The compositions evaluated were (1) saline (negative control), (2) 3 ug QS-21, (3) 10 ug QS-21, (4) 30 ug QS-21, (5) 3 ug QS-7(6) 10 ug QS-7, (7) 30 ug QS-7, (8) 3 ug sequence CpG 1826, (9) 10 ug CpG sequence 1826, and (10) 30 ug CpG sequence 1826. All test compositions were administered subcutaneously at day 1 and day 2. Splenocytes were removed from the mice at day 3 for use as effector cells in the natural killer cell assay. YAC-1 cells (loaded with ^51Cr) were used as target cells.
This experiment evaluated the natural killer cell stimulating activity induced by various formulations: (1) QS-21 (10 ug), (2) QS-7 (10 ug), (3) CpG sequence 1826 (10 ug), (4) CpG sequence 2006 (10 ug), (5) QS-21 (10 ug)+CpG sequence 1826 (10 ug), (6) QS-21 (10 ug)+CpG 2006 (10 ug), (7) QS-7 (10 ug)+CpG sequence 1826 ( […]), (8) QS-7 (10 ug) +CpG sequence 2006 (10 ug), (9) QS-7 (10 ug) and QS-21 (10 ug) and (10) saline. Balb/c mice (5 per group, female, 8-10 weeks of age) were administered the above formulations by subcutaneous route on day 1 and day 2. Splenocytes were removed from the mice at day 3 for use as effector cells in the natural killer cell assay. YAC-1 cells (loaded with ^51Cr) were used as target cells.

[2] = system: Listeria monocytogenes strain 10403s; test: Listeria monocytogenes challenge model (spleen colony counts); format: in vivo, Balb/c mice; settings: Example 5, FIG. 5; given day 0, i.p. challenge with 10^5 colonies day 3, spleens 96 hours after challenge; versus saline, p<0.05 for the two lowest groups
Procedure: Balb/mice (5 per group, female, 8-10 weeks of age) were administered the following formulations on day 0: Group 1: saline, subcutaneous route. Group 2: 10 ug QS-21 and 10 ug of CpG sequence 1826, subcutaneous route. Group 3: 10 ug QS-21, subcutaneous route. Group 4: 10 ug CpG sequence 1826, subcutaneous route. Group 5: 0.5 ug recombinant murine IL-12, intraperitoneal route. A total volume of 0.2 ml was administered. On day 3, mice were challenged by the intraperitoneal route with 10^5 colonies of Listeria monocytogenes strain 10403s. Spleens were removed at 96 hours after challenge, homogenized, and then cultured in serial 10-fold dilutions overnight on agar plates. Listeria monocytogenes colonies were counted, the number of organisms per spleen determined, and then the geometric mean and standard error were determined for each group. A two-tailed, paired student's t-test of the log10 colonies/spleen was used to show statistical significance.

QS-21
NK cell response (lysis of YAC-1 cells) [1]: higher than CpG and that was nearly equivalent to the positive control, murine IL-12
NK cell activity compared with QS-7 at an equivalent dose [1]: higher than that induced by QS-7
NK activity, dose response [1]: enhance NK activity in a dose dependent fashion
Listeria monocytogenes colony count in spleen [2]: lowest colony counts

TCCATGACGTTCCTGACGTT [CpG sequence 1826]
NK cell response (lysis of YAC-1 cells) [1]: slightly enhanced the NK cell activity
NK cell activity compared with QS-7 at an equivalent dose [1]: higher than that induced by QS-7
NK activity, dose response [1]: enhance NK activity in a dose dependent fashion
